Patent publication US20230406843A1, “Progranulin Modulators and Methods of Using the Same” (ARKUDA THERAPEUTICS, priority 2020, published 2023)

These compounds were tested on progranulin (assay: Progranulin induction cellular assay (ELISA of secreted mouse PGRN)). Settings: progranulin induction assay; mouse pMG, primary cortical neurons and BV-2 cell lines named, cell type not given; ELISA-based readout; read-out: EC50.
Format: cell-based
Procedure: Cellular Assays: Progranulin induction assay. To measure the efficacy of compounds, a progranulin induction cellular assay in mouse primary microglia (pMG), primary cortical neurons, and BV-2 cell lines is used. BV-2 cells are split the day before plating into a 96 well plate format at approximately 80%. Cells should be plated the day before and allowed for 1 hour attachment period and for 16 hour incubation. Levels of progranulin secreted into the cell culture medium or retained in the cell lysate can be quantified using an ELISA-based readout and measurement of secreted mouse PGRN in the medium was assessed by the methodology published by Ghidoni et al. 2012. Standard ELISA kits to measure PGRN are available from vendors such as Adipogen, R&D, and Biovendor.
Table B below presents the results of a progranulin induction assay as described above.
For `N[C@@H]1CO[C@@H](C(=O)N2CCc3ccccc3[C@@H]2c2ccc(F)cc2)C[C@@H]1O` [Compound 5052, ((2R,4S,5R)-5-amino-4-hydroxytetrahydro-2H-pyran-2-yl)((S)-1-(4-fluorophenyl)-3,4-dihydroisoquinolin-2(1H)-yl)methanone], the EC50 was 18 nM.
`N[C@@H]1CO[C@H](C(=O)N2CCc3ccccc3[C@@H]2c2ccc(F)cc2)C[C@@H]1O` [Compound 5053, ((2S,4S,5R)-5-amino-4-hydroxytetrahydro-2H-pyran-2-yl)((S)-1-(4-fluorophenyl)-3,4-dihydroisoquinolin-2(1H)-yl)methanone] gave an EC50 of 77 nM.
Compound `N[C@@H]1C[C@@H](C(=O)N2CCc3ccccc3[C@@H]2c2ccc(F)cc2)OC[C@@H]1O` [Compound 5054, ((2S,4R,5R)-4-amino-5-hydroxytetrahydro-2H-pyran-2-yl)((S)-1-(4-fluorophenyl)-3,4-dihydroisoquinolin-2(1H)-yl)methanone] has an EC50 of 130 nM.
In the case of `N[C@H]1C[C@H](C(=O)N2CCc3ccccc3[C@@H]2c2ccc(F)cc2)OC[C@@H]1O` [Compound 5055, ((2R,4S,5R)-4-amino-5-hydroxytetrahydro-2H-pyran-2-yl)((S)-1-(4-fluorophenyl)-3,4-dihydroisoquinolin-2(1H)-yl)methanone], the EC50 is reported as 56 nM.
With `N[C@H]1CO[C@H](C(=O)N2CCc3ccccc3[C@@H]2c2ccc(F)cc2)C[C@@H]1O` [Compound 5056, ((2S,4S,5S)-5-amino-4-hydroxytetrahydro-2H-pyran-2-yl)((S)-1-(4-fluorophenyl)-3,4-dihydroisoquinolin-2(1H)-yl)methanone] the EC50 was 127 nM.
`N[C@@H]1CO[C@@H](C(=O)N2CCc3ccccc3[C@@H]2c2ccc(F)cc2)C[C@H]1O` [Compound 5057, ((2R,4R,5R)-5-amino-4-hydroxytetrahydro-2H-pyran-2-yl)((S)-1-(4-fluorophenyl)-3,4-dihydroisoquinolin-2(1H)-yl)methanone] gave an EC50 of 133 nM.
`N[C@H]1C[C@@H](C(=O)N2CCc3ccccc3[C@@H]2c2ccc(F)cc2)OC[C@H]1O` [Compound 5058, ((2S,4S,5S)-4-amino-5-hydroxytetrahydro-2H-pyran-2-yl)((S)-1-(4-fluorophenyl)-3,4-dihydroisoquinolin-2(1H)-yl)methanone] showed an EC50 of 290 nM.
In the case of `N[C@H]1CO[C@H](C(=O)N2CCc3ccccc3[C@@H]2c2ccc(F)cc2)C[C@@H]1F` [Compound 5059, ((2S,4S,5S)-5-amino-4-fluorotetrahydro-2H-pyran-2-yl)((S)-1-(4-fluorophenyl)-3,4-dihydroisoquinolin-2(1H)-yl)methanone], the EC50 is reported as 344 nM.
`N[C@H]1CO[C@H](C(=O)N2CCc3ccccc3[C@@H]2c2ccc(F)cc2)CC1(F)F` [Compound 5060, ((2S,5S)-5-amino-4,4-difluorotetrahydro-2H-pyran-2-yl)((S)-1-(4-fluorophenyl)-3,4-dihydroisoquinolin-2(1H)-yl)methanone] showed an EC50 of 5850 nM.
With `N[C@@H]1CO[C@@H](C(=O)N2CCc3ccccc3[C@@H]2c2ccc(F)cc2)C[C@H]1F` [Compound 5061, ((2R,4R,5R)-5-amino-4-fluorotetrahydro-2H-pyran-2-yl)((S)-1-(4-fluorophenyl)-3,4-dihydroisoquinolin-2(1H)-yl)methanone] the EC50 was 478 nM.
For `CO[C@@H]1CO[C@@H](C(=O)N2CCc3ccccc3[C@@H]2c2ccc(F)cc2)C[C@@H]1N` [Compound 5062, ((2R,4S,5S)-4-amino-5-methoxytetrahydro-2H-pyran-2-yl)((S)-1-(4-fluorophenyl)-3,4-dihydroisoquinolin-2(1H)-yl)methanone], the EC50 was 49 nM.
In the case of `CCO[C@@H]1CO[C@@H](C(=O)N2CCc3ccccc3[C@@H]2c2ccc(F)cc2)C[C@@H]1N` [Compound 5063, ((2R,4S,5S)-4-amino-5-ethoxytetrahydro-2H-pyran-2-yl)((S)-1-(4-fluorophenyl)-3,4-dihydroisoquinolin-2(1H)-yl)methanone], the EC50 is reported as 35 nM.
With `N[C@@H]1CO[C@@H](C(=O)N2CCc3ccccc3[C@@H]2c2ccc(F)cc2)C[C@@H]1F` [Compound 5064, ((2R,4S,5R)-5-amino-4-fluorotetrahydro-2H-pyran-2-yl)((S)-1-(4-fluorophenyl)-3,4-dihydroisoquinolin-2(1H)-yl)methanone] the EC50 was 102 nM.
With `N[C@H]1CO[C@@H](C(=O)N2CCc3ccccc3[C@@H]2c2ccc(F)cc2)C[C@H]1O` [Compound 5065, ((2R,4R,5S)-5-amino-4-hydroxytetrahydro-2H-pyran-2-yl)((S)-1-(4-fluorophenyl)-3,4-dihydroisoquinolin-2(1H)-yl)methanone] the EC50 was 324 nM.
For `N[C@@H]1C[C@@H](C(=O)N2CCc3ccccc3[C@@H]2c2ccc(F)cc2)OC[C@H]1O` [Compound 5068, ((2S,4R,5S)-4-amino-5-hydroxytetrahydro-2H-pyran-2-yl)((S)-1-(4-fluorophenyl)-3,4-dihydroisoquinolin-2(1H)-yl)methanone], the EC50 was 376 nM.
Compound `N[C@H]1C[C@H](C(=O)N2CCc3ccccc3[C@@H]2c2ccc(F)cc2)OC[C@@H]1F` [Compound 5069, ((2R,4S,5R)-4-amino-5-fluorotetrahydro-2H-pyran-2-yl)((S)-1-(4-fluorophenyl)-3,4-dihydroisoquinolin-2(1H)-yl)methanone] has an EC50 of 142 nM.
For `N[C@H]1CO[C@@H](C(=O)N2CCc3ccccc3[C@@H]2c2ccc(F)cc2)C[C@@H]1O` [Compound 5070, ((2R,4S,5S)-5-amino-4-hydroxytetrahydro-2H-pyran-2-yl)((S)-1-(4-fluorophenyl)-3,4-dihydroisoquinolin-2(1H)-yl)methanone], the EC50 was 153 nM.
`N[C@@H]1CO[C@H](C(=O)N2CCc3ccccc3[C@@H]2c2ccc(F)cc2)C[C@H]1O` [Compound 5072, ((2S,4R,5R)-5-amino-4-hydroxytetrahydro-2H-pyran-2-yl)((S)-1-(4-fluorophenyl)-3,4-dihydroisoquinolin-2(1H)-yl)methanone] gave an EC50 of 81 nM.
Work on `CO[C@H]1CO[C@@H](C(=O)N2CCc3ccccc3[C@@H]2c2ccc(F)cc2)C[C@H]1N` [Compound 5073, ((2R,4R,5R)-4-amino-5-methoxytetrahydro-2H-pyran-2-yl)((S)-1-(4-fluorophenyl)-3,4-dihydroisoquinolin-2(1H)-yl)methanone] yielded an EC50 of 159 nM.
Work on `N[C@@H]1C[C@H](C(=O)N2CCc3ccccc3[C@@H]2c2ccc(F)cc2)OC[C@@H]1O` [Compound 5074, ((2R,4R,5R)-4-amino-5-hydroxytetrahydro-2H-pyran-2-yl)((S)-1-(4-fluorophenyl)-3,4-dihydroisoquinolin-2(1H)-yl)methanone] yielded an EC50 of 230 nM.
Compound `N[C@H]1CO[C@@H](C(=O)N2CCc3ccccc3[C@@H]2c2ccc(F)cc2)C[C@H]1F` [Compound 5075, ((2R,4R,5S)-5-amino-4-fluorotetrahydro-2H-pyran-2-yl)((S)-1-(4-fluorophenyl)-3,4-dihydroisoquinolin-2(1H)-yl)methanone] has an EC50 of 529 nM.
Work on `C[C@H]1C[C@@H](C(=O)N2CCc3ccccc3[C@@H]2c2ccc(F)cc2)OC[C@@H]1N` [Compound 5076, ((2S,4S,5R)-5-amino-4-methyltetrahydro-2H-pyran-2-yl)((S)-1-(4-fluorophenyl)-3,4-dihydroisoquinolin-2(1H)-yl)methanone] yielded an EC50 of 321 nM.
With `CO[C@H]1CO[C@@H](C(=O)N2CCc3ccccc3[C@@H]2c2ccc(F)cc2)C[C@@H]1N` [Compound 5077, ((2R,4S,5R)-4-amino-5-methoxytetrahydro-2H-pyran-2-yl)((S)-1-(4-fluorophenyl)-3,4-dihydroisoquinolin-2(1H)-yl)methanone] the EC50 was 3 nM.
With `CCO[C@H]1CO[C@@H](C(=O)N2CCc3ccccc3[C@@H]2c2ccc(F)cc2)C[C@@H]1N` [Compound 5078, ((2R,4S,5R)-4-amino-5-ethoxytetrahydro-2H-pyran-2-yl)((S)-1-(4-fluorophenyl)-3,4-dihydroisoquinolin-2(1H)-yl)methanone] the EC50 was 1 nM.
`O=C1N[C@H]2C[C@H](C(=O)N3CCc4ccccc4[C@@H]3c3ccc(F)cc3)OC[C@H]2O1` [Compound 5079, (3aS,6R,7aS)-6-((S)-1-(4-fluorophenyl)-1,2,3,4-tetrahydroisoquinoline-2-carbonyl)hexahydro-2H-pyrano[4,3-d]oxazol-2-one] was tested, and the EC50 was > 10000 nM.
Work on `N[C@H]1C[C@@H](C(=O)N2CCc3ccccc3[C@@H]2c2ccc(F)cc2)OC[C@@H]1O` [Compound 5083, ((2S,4S,5R)-4-amino-5-hydroxytetrahydro-2H-pyran-2-yl)((S)-1-(4-fluorophenyl)-3,4-dihydroisoquinolin-2(1H)-yl)methanone] yielded an EC50 of 84 nM.
Work on `C[C@@H]1C[C@@H](C(=O)N2CCc3ccccc3[C@@H]2c2ccc(F)cc2)OC[C@@H]1N` [Compound 5084, ((2S,4R,5R)-5-amino-4-methyltetrahydro-2H-pyran-2-yl)((S)-1-(4-fluorophenyl)-3,4-dihydroisoquinolin-2(1H)-yl)methanone] yielded an EC50 of 180 nM.
In the case of `CN(C)[C@@H]1CO[C@@H](C(=O)N2CCc3ccccc3[C@@H]2c2ccc(F)cc2)C[C@@H]1O` [Compound 5085, ((2R,4S,5R)-5-(dimethylamino)-4-hydroxytetrahydro-2H-pyran-2-yl)((S)-1-(4-fluorophenyl)-3,4-dihydroisoquinolin-2(1H)-yl)methanone], the EC50 is reported as 316 nM.
`N[C@H]1CO[C@H](C(=O)N2CCc3ccccc3[C@@H]2c2ccc(F)cc2)C[C@H]1F` [Compound 5086, ((2S,4R,5S)-5-amino-4-fluorotetrahydro-2H-pyran-2-yl)((S)-1-(4-fluorophenyl)-3,4-dihydroisoquinolin-2(1H)-yl)methanone] showed an EC50 of 194 nM.
For `N[C@H]1C[C@H](C(=O)N2CCc3ccccc3[C@@H]2c2ccc(F)cc2)OC[C@H]1F` [Compound 5087, ((2R,4S,5S)-4-amino-5-fluorotetrahydro-2H-pyran-2-yl)((S)-1-(4-fluorophenyl)-3,4-dihydroisoquinolin-2(1H)-yl)methanone], the EC50 was 42.1 nM.
